# Laboratory results from US20220362138A1, “Oral Care Compositions and Methods of Use” (Colgate-Palmolive Company, priority 2020, published 2022).
# System: IL-1 β mediated PGE2 in HEPM monolayer cells
# Experiment: IL-1β mediated PGE2 suppression, HEPM monolayer cell model
# Type: cell-based
# Settings: cells treated with IL-1 β
# From the text: IL-1 β Mediated PGE2 Suppression with Gymnema sylvestre Treatment (Cell Model)
# PGE2, a marker of inflammation, can be increased via administration of IL-1 β. Samples are subjected to the HEPM monolayer cell model assay. […]
smiles,measurement,setting,value
Oc1cc(Cl)ccc1Oc1ccc(Cl)cc1Cl [Triclosan],PGE2,0.0005%,715.9 pg/mL
same,PGE2,0.001%,520.9 pg/mL
